Data reported in ChEMBL document CHEMBL1201862, “PubChem BioAssay data set” (2004).
Active and inactive are the calls of the source. For most assays here, no stated cut-off is given here; in the data, actives have a measured AC50 and inactives only a lower limit.

Columns and labels:
[1] = target: ORF 73 (Human herpesvirus 8, UniProt O40947); test: KSHV LANA DNA-binding disruption – biochemical, fluorescence polarization, cherry-picked samples, dose response (AID 504725); set-up: species or system Human gammaherpesvirus 8;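 further: fluorescence polarization of a labeled DNA duplex reporting LANA DNA binding; potency is for inhibitors that block LANA binding to the DNA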
[2] = target: Caspase-9 (Homo sapiens, UniProt P55211); test: inhibitors of purified CASP9 protease – biochemical, fluorescence, plate reader, cherry-picked samples, selectivity assay for caspase-6 inhibitor project, dose response (AID 743293)
[3] = target: T1, Histone-lysine N-methyltransferase NSD2 (Homo sapiens, UniProt O96028); format: biochemical
T1 sequence (O96028 whole entry): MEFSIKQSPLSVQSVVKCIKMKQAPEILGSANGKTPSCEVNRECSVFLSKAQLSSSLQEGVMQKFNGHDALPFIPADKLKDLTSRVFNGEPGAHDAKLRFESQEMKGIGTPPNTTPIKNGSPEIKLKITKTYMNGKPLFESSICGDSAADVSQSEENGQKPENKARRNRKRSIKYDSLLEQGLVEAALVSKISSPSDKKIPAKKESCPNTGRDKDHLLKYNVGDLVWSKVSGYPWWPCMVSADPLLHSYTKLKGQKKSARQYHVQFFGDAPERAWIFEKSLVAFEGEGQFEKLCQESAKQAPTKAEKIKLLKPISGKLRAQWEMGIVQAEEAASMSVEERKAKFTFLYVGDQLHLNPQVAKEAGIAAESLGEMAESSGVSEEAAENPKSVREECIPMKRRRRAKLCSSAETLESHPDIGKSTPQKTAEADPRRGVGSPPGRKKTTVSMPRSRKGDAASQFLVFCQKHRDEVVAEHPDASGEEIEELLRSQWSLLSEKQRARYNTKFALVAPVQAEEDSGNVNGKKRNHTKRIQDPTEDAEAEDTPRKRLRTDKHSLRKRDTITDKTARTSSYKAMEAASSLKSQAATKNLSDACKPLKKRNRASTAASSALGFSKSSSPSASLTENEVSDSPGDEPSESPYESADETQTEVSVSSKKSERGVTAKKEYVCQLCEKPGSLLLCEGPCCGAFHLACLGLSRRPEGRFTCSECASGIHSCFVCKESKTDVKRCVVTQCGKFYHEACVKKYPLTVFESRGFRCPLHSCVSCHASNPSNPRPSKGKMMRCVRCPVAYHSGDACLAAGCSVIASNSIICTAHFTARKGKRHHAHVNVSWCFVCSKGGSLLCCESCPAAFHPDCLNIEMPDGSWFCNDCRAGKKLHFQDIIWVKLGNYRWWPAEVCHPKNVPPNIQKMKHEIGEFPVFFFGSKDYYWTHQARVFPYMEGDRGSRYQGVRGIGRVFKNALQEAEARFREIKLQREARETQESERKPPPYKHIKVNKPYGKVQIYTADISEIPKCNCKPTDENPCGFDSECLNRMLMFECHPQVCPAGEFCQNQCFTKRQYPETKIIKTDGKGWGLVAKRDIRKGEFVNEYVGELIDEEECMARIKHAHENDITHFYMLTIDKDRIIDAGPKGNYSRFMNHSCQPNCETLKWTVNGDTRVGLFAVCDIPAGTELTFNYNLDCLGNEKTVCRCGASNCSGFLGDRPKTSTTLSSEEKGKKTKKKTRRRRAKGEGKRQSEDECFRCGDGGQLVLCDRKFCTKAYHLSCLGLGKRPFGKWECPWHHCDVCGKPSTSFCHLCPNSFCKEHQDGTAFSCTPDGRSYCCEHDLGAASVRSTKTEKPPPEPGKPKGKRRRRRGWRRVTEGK

[4] = target: Caspase-8 (Homo sapiens, UniProt Q14790); test: inhibitors of purified CASP8 protease – biochemical, Z-IETD-R110 fluorescence, cherry-picked samples, selectivity assay for caspase-6 inhibitor project, dose response (AID 743294)
[5] = target: T2, Apoptotic protease-activating factor 1 (Homo sapiens, UniProt O14727); format: functional
T2 sequence (O14727 whole entry): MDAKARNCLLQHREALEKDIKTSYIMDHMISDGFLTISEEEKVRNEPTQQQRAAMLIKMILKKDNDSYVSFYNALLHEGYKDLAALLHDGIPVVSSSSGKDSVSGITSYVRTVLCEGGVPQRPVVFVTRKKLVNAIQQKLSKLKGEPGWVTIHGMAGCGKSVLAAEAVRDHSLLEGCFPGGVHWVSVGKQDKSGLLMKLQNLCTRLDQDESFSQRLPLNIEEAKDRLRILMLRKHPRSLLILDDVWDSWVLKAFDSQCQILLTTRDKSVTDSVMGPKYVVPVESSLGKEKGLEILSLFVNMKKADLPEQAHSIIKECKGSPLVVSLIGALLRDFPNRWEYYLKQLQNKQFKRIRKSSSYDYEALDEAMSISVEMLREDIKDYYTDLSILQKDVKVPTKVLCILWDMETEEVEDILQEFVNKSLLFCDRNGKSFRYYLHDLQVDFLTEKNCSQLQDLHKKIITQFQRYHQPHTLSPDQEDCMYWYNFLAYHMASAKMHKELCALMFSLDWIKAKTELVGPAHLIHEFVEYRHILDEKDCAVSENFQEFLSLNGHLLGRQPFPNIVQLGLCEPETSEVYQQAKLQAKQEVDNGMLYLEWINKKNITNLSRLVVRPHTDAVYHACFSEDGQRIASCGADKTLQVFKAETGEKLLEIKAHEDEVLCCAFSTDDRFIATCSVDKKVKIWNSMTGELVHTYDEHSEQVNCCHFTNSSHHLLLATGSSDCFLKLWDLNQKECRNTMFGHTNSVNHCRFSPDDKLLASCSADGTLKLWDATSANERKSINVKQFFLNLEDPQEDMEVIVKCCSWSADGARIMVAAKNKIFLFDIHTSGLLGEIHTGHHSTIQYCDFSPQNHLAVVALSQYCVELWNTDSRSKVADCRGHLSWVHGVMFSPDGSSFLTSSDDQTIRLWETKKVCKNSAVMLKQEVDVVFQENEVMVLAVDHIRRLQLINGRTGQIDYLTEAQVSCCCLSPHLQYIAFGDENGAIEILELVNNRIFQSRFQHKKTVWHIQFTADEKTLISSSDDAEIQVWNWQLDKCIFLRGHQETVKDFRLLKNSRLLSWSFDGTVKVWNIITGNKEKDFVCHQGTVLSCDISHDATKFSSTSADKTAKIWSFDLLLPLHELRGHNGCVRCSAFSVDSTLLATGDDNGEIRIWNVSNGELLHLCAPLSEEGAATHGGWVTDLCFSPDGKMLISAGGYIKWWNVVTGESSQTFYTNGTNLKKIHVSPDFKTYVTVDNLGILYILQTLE

Caspase-8, sequence (Q14790 217-374 limits assumed): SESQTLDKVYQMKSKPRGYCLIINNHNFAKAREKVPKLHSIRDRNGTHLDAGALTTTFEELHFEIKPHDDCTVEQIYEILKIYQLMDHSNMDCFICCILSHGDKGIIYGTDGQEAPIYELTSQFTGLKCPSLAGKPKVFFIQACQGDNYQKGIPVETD
Caspase-8, sequence (Q14790 385-479 limits assumed): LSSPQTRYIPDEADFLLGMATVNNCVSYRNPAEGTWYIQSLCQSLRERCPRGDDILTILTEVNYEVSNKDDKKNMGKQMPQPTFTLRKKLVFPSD
Caspase-9, sequence (P55211 1-315 limits assumed): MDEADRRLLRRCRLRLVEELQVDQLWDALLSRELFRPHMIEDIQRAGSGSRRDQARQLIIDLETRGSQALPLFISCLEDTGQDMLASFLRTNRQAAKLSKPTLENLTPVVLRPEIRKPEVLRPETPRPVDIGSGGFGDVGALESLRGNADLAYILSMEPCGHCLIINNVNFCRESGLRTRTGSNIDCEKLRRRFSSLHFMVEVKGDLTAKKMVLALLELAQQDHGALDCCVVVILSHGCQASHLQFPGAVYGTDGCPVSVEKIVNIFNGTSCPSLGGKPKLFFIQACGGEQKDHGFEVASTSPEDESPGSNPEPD
Caspase-9, sequence (P55211 331-416 limits assumed): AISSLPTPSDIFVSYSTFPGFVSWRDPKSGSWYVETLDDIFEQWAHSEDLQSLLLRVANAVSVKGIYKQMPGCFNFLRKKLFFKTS
ORF 73, sequence (O40947 whole entry): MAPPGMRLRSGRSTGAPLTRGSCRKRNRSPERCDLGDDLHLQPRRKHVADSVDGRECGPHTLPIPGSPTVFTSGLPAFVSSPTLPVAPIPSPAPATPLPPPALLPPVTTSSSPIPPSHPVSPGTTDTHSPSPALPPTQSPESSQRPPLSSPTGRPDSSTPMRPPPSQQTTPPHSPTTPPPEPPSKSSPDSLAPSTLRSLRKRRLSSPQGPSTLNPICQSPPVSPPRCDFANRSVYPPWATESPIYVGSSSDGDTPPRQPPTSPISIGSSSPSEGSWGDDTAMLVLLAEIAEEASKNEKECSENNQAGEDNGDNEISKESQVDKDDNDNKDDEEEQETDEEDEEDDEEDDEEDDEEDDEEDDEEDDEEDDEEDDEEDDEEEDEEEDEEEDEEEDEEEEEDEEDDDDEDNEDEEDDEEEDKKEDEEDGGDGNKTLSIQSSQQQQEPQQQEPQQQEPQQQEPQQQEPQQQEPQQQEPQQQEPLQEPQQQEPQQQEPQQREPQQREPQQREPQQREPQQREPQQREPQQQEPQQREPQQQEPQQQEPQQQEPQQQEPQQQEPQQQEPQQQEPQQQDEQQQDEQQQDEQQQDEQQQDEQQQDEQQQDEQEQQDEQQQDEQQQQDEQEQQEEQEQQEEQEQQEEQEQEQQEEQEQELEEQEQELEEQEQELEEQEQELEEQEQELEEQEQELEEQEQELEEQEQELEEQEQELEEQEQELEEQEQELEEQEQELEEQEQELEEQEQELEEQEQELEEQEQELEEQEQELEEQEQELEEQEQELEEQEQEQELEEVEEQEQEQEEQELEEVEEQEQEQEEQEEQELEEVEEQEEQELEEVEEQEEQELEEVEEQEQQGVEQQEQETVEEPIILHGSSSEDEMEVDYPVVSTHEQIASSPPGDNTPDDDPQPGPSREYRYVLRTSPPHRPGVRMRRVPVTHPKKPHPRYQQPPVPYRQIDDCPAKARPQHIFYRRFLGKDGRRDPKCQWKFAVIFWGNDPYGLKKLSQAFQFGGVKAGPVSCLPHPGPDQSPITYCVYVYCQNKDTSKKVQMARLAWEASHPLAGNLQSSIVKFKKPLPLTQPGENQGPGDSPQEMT

Row | Structure (SMILES) | AC50 [1] | AC50 [2] | AC50 [3] | AC50 [4] | IC50 [5]
1 | O=c1ccc2c(-c3ccccc3S(=O)(=O)O)c3ccc(O)c(O)c3oc-2c1O [PYROGALLOL RED] | 0.526 µM (active) | > 70 µM (inactive) | 0.146 µM (active) | > 70 µM (inactive) | 
2 | CCCCCCCCCCOC(=O)C[n+]1c(COc2ccccc2OC)n(C)c2ccccc21 |  |  |  |  | 14.3 µM (active)
